Assay results: patent US20250099491A1, “PREVENTION OR TREATMENT OF CARDIOVASCULAR DISEASES WITH HIGH PENETRATION PRODRUGS OF ASPIRIN AND OTHER NSAIDS” (Techfields Inc., priority 2022, published 2025)

System: patients with ischemic strokes
Assay: Phase 2 clinical study of spray in patients with ischemic strokes
Type: in vivo, human
Conditions: for LCCA (far-wall): Maximal IMT of left common carotid artery / LCCA (near-wall): Maximal IMT of left common carotid artery / LICA (far-wall): Maximal IMT of left internal carotid artery / LICA (near-wall): Maximal IMT of left internal carotid artery / RCCA (far-wall): Maximal IMT of right common carotid artery / RCCA (near-wall): Maximal IMT of right common carotid artery / RICA (far-wall): Maximal IMT of right internal carotid artery / RICA (near-wall): Maximal IMT of right internal carotid artery: ultrasonography
Method: Each patient enrolled in Group A was administered the investigational drug in a double-blind manner for 16 weeks starting between 3 and 60 days after the onset of stroke symptoms (Day 1 of the study). The patients and/or their caregivers were instructed how to apply the investigational drug accurately so that patients or their caregivers would administer 20 sprays/dose of either the investigational drug or placebo twice daily (approximately every 12 hours) for a total daily dose of 280 mg of investigational drug. The 20 sprays of investigational drug were administered as follows: 4 sprays around the neck, 2 sprays to the left shoulder, 2 sprays to the right shoulder, 6 sprays to the chest, 3 sprays to the left leg, and 3 sprays to the right leg. Each spray was sprayed on a different area of the skin to reach maximum absorption. The patient would wait for at least 5 minutes to dress after the last spray so that the skin became completely dry.
Patients were asked to return to the study site at Weeks 4, 8, 12, and 16 for efficacy and safety assessments. After the Week 16 assessments had been performed, patients would start the open-label period of the study the next day and receive active treatment in an open-label manner through the end of the study (EOS) at Week 32. That is, patients who were receiving active treatment would continue to receive active treatment, and patients who were receiving placebo would switch to active treatment for the remaining 16 weeks of the study. Patients would receive only 1 dose of investigational drug on the Week 16 visit day. Patients would return to the study site at Week 24 and Week 32 (EOS) for efficacy and safety assessments. An Early Termination visit would occur if the patient was discontinued from the study prematurely. Patients would have a follow-up visit approximately 14 days after the Early Termination visit or the Week 32 (EOS) visit.
The spray bottle deposits […] of spray solution and 7 mg 2-(diethylamino)ethyl acetoxybenzoate free base per spray on the skin. Subjects were to apply each spray to a different skin area around the neck, chest, legs and arms based on the randomized dose level assigned.
The treatment was administered twice daily (approximately every 12 hours) starting on Day 1 of the study through the Week 16 visit. Each spray was sprayed on a different area of the skin to reach maximum absorption.
Group A administered the 20 sprays of investigational drug as follows: 4 sprays around the neck, 2 sprays to the left shoulder, 2 sprays to the right shoulder, 6 sprays to the chest, 3 sprays to the left leg, and 3 sprays to the right leg twice daily for a total of 40 sprays (280 mg)/day. Each spray was sprayed on a different area of the skin to reach maximum absorption.
(§1) Group B administered the investigational drug as follows: 2 sprays to the front of the neck, 1 spray to the left side of the neck, 1 spray to the right side of the neck, 6 sprays to the chest close to the neck twice daily for a total of 20 sprays (140 mg)/day. Each spray was sprayed on a different area of the skin to reach maximum absorption.
as §1, with “C” for “B”, “1 spray” for “2 sprays”, “2” for “6”, “chest” for “chest close to the neck”, “10” for “20”, “(70 mg/day).” for “(140 mg)/day.”
The primary efficacy endpoint is the mRS score at Week 16 dichotomized as ‘success’ (0 to 2) or failure (>2) for all randomized patients at Week 16.
The mRS score was assessed at screening; Day 1 (baseline); Weeks 4, 8, 12, 16, 24, and 32; Early Termination Visit (if applicable) and Follow-Up Visit.
The mRS score measures the patient's functional level of activity and is dichotomized as a favorable outcome (score=0-2) versus unfavorable (score […]). […]

[1] = 5 Sprays (35 mg/dose bid), Baseline
[2] = 5 Sprays (35 mg/dose bid), Week 4
[3] = 5 Sprays (35 mg/dose bid), Week 8
[4] = 5 Sprays (35 mg/dose bid), Week 16
[5] = 5 Sprays (35 mg/dose bid), Week 24
[6] = 5 Sprays (35 mg/dose bid), Week 32
[7] = 5 Sprays (35 mg/dose bid), baseline
[8] = 10 Sprays (70 mg/dose bid), Baseline
[9] = 10 Sprays (70 mg/dose bid), Week 4
[10] = 10 Sprays (70 mg/dose bid), Week 8
[11] = 10 Sprays (70 mg/dose bid), Week 16

Compound: CCN(CC)CCOC(=O)c1ccccc1OC(C)=O.Cl [Compound-1]
- safety and tolerability (35 mg, 70 mg, and 140 mg BID, topical spray): safe and were generally well tolerated
- LCCA (far-wall): Maximal IMT of left common carotid artery [1]: 6.2 ± 1.6 mm
- LCCA (near-wall): Maximal IMT of left common carotid artery [1]: 7.3 ± 2.0 mm
- LICA (far-wall): Maximal IMT of left internal carotid artery [1]: 5.3 ± 1.3 mm
- LICA (near-wall): Maximal IMT of left internal carotid artery [1]: 6.3 ± 2.1 mm
- RCCA (far-wall): Maximal IMT of right common carotid artery [1]: 7.1 ± 2.2 mm
- RCCA (near-wall): Maximal IMT of right common carotid artery [1]: 6.9 ± 2.1 mm
- RICA (far-wall): Maximal IMT of right internal carotid artery [1]: 4.1 ± 1.4 mm
- RICA (near-wall): Maximal IMT of right internal carotid artery [1]: 4.7 ± 1.5 mm
- Modified Rankin Scale Score (mRS) [2]: 3.1 ± 0.5
- National Institute of Health Stroke Scale [2]: 5.5 ± 1.7
- Modified Rankin Scale Score (mRS) [3]: 2.9 ± 0.3
- National Institute of Health Stroke Scale [3]: 5.3 ± 1.5
- Modified Rankin Scale Score (mRS) [4]: 2.7 ± 0.5
- National Institute of Health Stroke Scale [4]: 4.1 ± 1.0
- LCCA (far-wall): Maximal IMT of left common carotid artery [4]: 2.7 ± 1.4 mm
- LCCA (near-wall): Maximal IMT of left common carotid artery [4]: 2.3 ± 1.3 mm
- LICA (far-wall): Maximal IMT of left internal carotid artery [4]: 1.5 ± 1.1 mm
- LICA (near-wall): Maximal IMT of left internal carotid artery [4]: 1.6 ± 1.3 mm
- RCCA (far-wall): Maximal IMT of right common carotid artery [4]: 2.5 ± 1.1 mm
- RCCA (near-wall): Maximal IMT of right common carotid artery [4]: 2.1 ± 0.9 mm
- RICA (far-wall): Maximal IMT of right internal carotid artery [4]: 1.6 ± 0.9 mm
- RICA (near-wall): Maximal IMT of right internal carotid artery [4]: 1.5 ± 1.2 mm
- Modified Rankin Scale Score (mRS) [5]: 2.5 ± 0.5
- National Institute of Health Stroke Scale [5]: 3.4 ± 0.8
- Modified Rankin Scale Score (mRS) [6]: 2.4 ± 0.5
- National Institute of Health Stroke Scale [6]: 2.9 ± 0.6
- LCCA (far-wall): Maximal IMT of left common carotid artery [6]: 2.5 ± 0.7 mm
- LCCA (near-wall): Maximal IMT of left common carotid artery [6]: 2.1 ± 0.7 mm
- LICA (far-wall): Maximal IMT of left internal carotid artery [6]: 1.3 ± 0.7 mm
- LICA (near-wall): Maximal IMT of left internal carotid artery [6]: 1.2 ± 1.0 mm
- RCCA (far-wall): Maximal IMT of right common carotid artery [6]: 2.6 ± 0.9 mm
- RCCA (near-wall): Maximal IMT of right common carotid artery [6]: 2.3 ± 0.8 mm
- RICA (far-wall): Maximal IMT of right internal carotid artery [6]: 1.1 ± 0.7 mm
- RICA (near-wall): Maximal IMT of right internal carotid artery [6]: 1.2 ± 0.6 mm
- Modified Rankin Scale Score (mRS) [7]: 3.5 ± 0.5
- National Institute of Health Stroke Scale [7]: 6.0 ± 2.2
- LCCA (far-wall): Maximal IMT of left common carotid artery [8]: 7.1 ± 1.7 mm
- LCCA (near-wall): Maximal IMT of left common carotid artery [8]: 7.0 ± 1.5 mm
- LICA (far-wall): Maximal IMT of left internal carotid artery [8]: 5.8 ± 1.5 mm
- LICA (near-wall): Maximal IMT of left internal carotid artery [8]: 6.1 ± 1.3 mm
- RCCA (far-wall): Maximal IMT of right common carotid artery [8]: 7.9 ± 2.1 mm
- RCCA (near-wall): Maximal IMT of right common carotid artery [8]: 7.2 ± 1.7 mm
- RICA (far-wall): Maximal IMT of right internal carotid artery [8]: 4.3 ± 1.5 mm
- RICA (near-wall): Maximal IMT of right internal carotid artery [8]: 5.1 ± 1.2 mm
- Modified Rankin Scale Score (mRS) [9]: 2.5 ± 0.5
- National Institute of Health Stroke Scale [9]: 4.9 ± 1.5
- Modified Rankin Scale Score (mRS) [10]: 2.0 ± 0.5
- National Institute of Health Stroke Scale [10]: 3.7 ± 1.1
- Modified Rankin Scale Score (mRS) [11]: 1.6 ± 0.5
- National Institute of Health Stroke Scale [11]: 2.3 ± 0.8
- LCCA (far-wall): Maximal IMT of left common carotid artery [11]: 1.8 ± 0.7 mm
- LCCA (near-wall): Maximal IMT of left common carotid artery [11]: 1.3 ± 0.7 mm
- LICA (far-wall): Maximal IMT of left internal carotid artery [11]: 0.7 ± 0.3 mm
- LICA (near-wall): Maximal IMT of left internal carotid artery [11]: 0.9 ± 0.5 mm
- RCCA (far-wall): Maximal IMT of right common carotid artery [11]: 1.5 ± 0.6 mm
- RCCA (near-wall): Maximal IMT of right common carotid artery [11]: 1.6 ± 0.8 mm
- RICA (far-wall): Maximal IMT of right internal carotid artery [11]: 0.8 ± 0.3 mm
